The source of these data is patent publication US20200024278A1, “COMPOSITION COMPRISING ANTIBIOTIC COMPOUND AND AN HETEROCYCLIC COMPOUND AND THEIR USE IN PREVENTING OR TREATING BACTERIAL INFECTIONS” (MUTABILIS, priority 2016, published 2020).

Test [1] relates to PAE 27853. Nature of the test: MIC, broth microdilution (CLSI), substance alone or ATB combined with compound at 4 or 8 μg/mL. Type of test: cell-based, P. aeruginosa. To be noted: Pseudomonas aeruginosa, substance alone. In short, it runs like this:
(§1)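 CLSI broth microdilution in cation-adjusted Mueller-Hinton broth, 5·10^5 CFU/mL log-phase inoculum, 16-20 h at 35 °C in ambient air. Fosfomycin assays supplemented with 25 μg/ml glucose-6-phosphate.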

Test [2] deals with PAE 27853. Type of test: cell-based, P. aeruginosa. Particulars: tntbc: Too numerous to be counted. As to the method: (§2) Method 4: Determination of the Spontaneous Mutation Frequency of the Compounds Alone and Combined with Antibiotics.
(§3) Bacterial isolates (Table 3) were grown overnight at 35° C. on TSA plates (Becton-Dickinson and Company) in ambient air. After 24 h of incubation, isolated bacterial colonies were added to cation-adjusted Mueller-Hinton broth (ca-MHB; Becton-Dickinson and Company) and cultured for approximately 6 h at 35° C. The pre-culture was stopped once bacteria have reached an OD600 nm of 0.5 for 200 μL. The bacterial suspension was centrifuged at 4000 rpm for 20 min. The supernatant was then discarded and the bacterial pellet was dissolved in ca-MHB to obtain 10^9 to 10^10 CFU/mL. Assays including Fosfomycin were supplemented with 25 μg/ml of Glucose-6-phosphate. 100 μL of the adjusted bacterial suspension were spread on agar plates containing different concentrations of the compounds of the present invention alone or combined with an antibacterial (Table 1). The plates were incubated for 24-48 h at 35° C. in ambient air. CFU were numerated on each agar plate containing compound. The number of resistant colonies obtained was divided by the starting inoculum to give the frequency of spontaneous resistance for a given incubation time (24 and 48 h).

Another test concerns PAE UFR48. Type of test: cell-based, P. aeruginosa. To be noted: tntbc: Too numerous to be counted. As to the method:
as §2, §3

The test system of a further test is PAE UFR90. The format is cell-based, P. aeruginosa. Particulars: tntbc: Too numerous to be counted. As to the method: as §2, §3
The next test relates to KPN UFR68. Briefly: MIC, broth microdilution (CLSI), substance alone or ATB combined with compound at 4 or 8 μg/mL. Type of test: cell-based, K. pneumoniae. To be noted: Klebsiella pneumoniae, substance alone. Summed up:
as §1

Where two headings read alike, the source gives them in different places.

With `NC[C@H]1C=C(c2cnco2)[C@@H]2CN1C(=O)N2OS(=O)(=O)[O-].O=C(O)C(F)(F)F.[Na+]` (relative stereo) [Example 1, sodium and 2,2,2-trifluoroacetate [trans-2-(azaniumylmethyl)-4-oxazol-5-yl-7-oxo-1,6-diazabicyclo[3.2.1]oct-3-en-6-yl] sulfate], in the test with PAE 27853 [1], the MIC was 1 µg/mL. Also, the “Frequency of spontaneous resistance” value with PAE 27853 [2] (single agent at 4.MIC), in the test with PAE 27853 [2] (single agent at 8.MIC), in the test with PAE UFR48 (single agent at 4.MIC), in the test on PAE UFR48 (single agent at 8.MIC), in the test with PAE UFR90 (single agent at 4.MIC) and with PAE UFR90 (single agent at 8.MIC) was “tntbc” each time.

Take `NCC[C@H](O)C(=O)N[C@@H]1C[C@H](N)[C@@H](O[C@H]2O[C@H](CN)[C@@H](O)[C@H](O)[C@H]2O)[C@H](O)[C@H]1O[C@H]1O[C@H](CO)[C@@H](O)[C@H](N)[C@H]1O` [AN, Amikacin, reference compound]: in the test on PAE 27853 [1], the MIC was 2 µg/mL. Besides, the figures for the “Frequency of spontaneous resistance” value in the test with PAE 27853 [2] (single agent at 4.MIC) and with PAE 27853 [2] (single agent at 8.MIC) were 6.6E−07 and 1.7E−07, respectively.

Turning to `CO/N=C(\C(=O)N[C@@H]1C(=O)N2C(C(=O)[O-])=C(C[N+]3(C)CCCC3)CS[C@H]12)c1csc(N)n1` [FEP, Cefepime], the MIC with KPN UFR68 is above 256 µg/mL.
